# Laboratory results as given in PMC8011991 (Journal of medicinal chemistry, 2020).
# “Also recorded” adds a separate entry of the source.
# Key:
# [1] = test system: NL4–3 Env pseudo-typed HIV-1 virus; test: ELISA-based quantification of capsid; format: cell-based; conditions: 10 μM compound
# in vitro = conditions: human, microsomes
# Kunming mice = test: Single-dose acute toxicity in mice; conditions: intragastric
# recombinant HIV-1 RT = recombinant HIV-1 RT (Human immunodeficiency virus type 1 group M subtype B, UniProt P03366); test: Recombinant HIV-1 RT inhibitory assay; format: biochemical; conditions: at 0.2 μM
# [2] = In vivo pharmacokinetics in rats; conditions: rat, iv 2 mg/kg
Structure (SMILES),increase of CA/p24 content of the produced virus compared to the DMSO control [1],CLint scaled (in vitro) [mL/min/kg],further results
"COc1ccc(N(C)C(=O)[C@H](Cc2ccccc2)NC(=O)CN2C(=O)Nc3ccccc3S2(=O)=O)cc1 [Compound 8a, (S)-2-(2-(1,1-dioxido-3-oxo-3,4-dihydro-2H-benzo[e][1,2,4]thiadiazin-2-yl)acetamido)-N-(4-methoxyphenyl)-N-methyl-3-phenylpropanamide]",0–20%,,
"C[C@]12CC[C@H]3[C@@H](CCC4=CC(=O)CC[C@@]43C)[C@@H]1CC[C@@H]2O [Testosteron^e, Testosterone]",,85.7,"CLint(mic) (HLM 0.5 mg protein/mL): 95.2 µL/min/mg; Remaining (T=60min) (HLM 0.5 mg protein/mL, 60 min): 6.1%; Remaining (NCF=60min) (no cofactor (no NADPH), 60 min): 84.0%"
O=C(O)Cc1ccccc1Nc1c(Cl)cccc1Cl [Diclofenac],,84.3,
"COc1ccc(N(C)C(=O)[C@H](Cc2ccccc2)NC(=O)CNS(=O)(=O)c2cccc(F)c2)cc1 [Compound 6k, (S)-2-(2-((3-fluorophenyl)sulfonamido)acetamido)-N-(4-methoxyphenyl)-N-methyl-3-phenylpropanamide]",0–20%,,
"Cc1[nH]c2ccccc2c1CC(=O)N[C@@H](Cc1ccccc1)C(=O)N(C)c1ccccc1 [PF-74, reference compound]",around 40%,972,
"COc1ccc(N(C)C(=O)[C@H](Cc2ccccc2)NC(=O)CN2CCN(S(=O)(=O)c3ccc(N)cc3)CC2=O)cc1 [Compound 11l, (S)-2-(2-(4-((4-aminophenyl)sulfonyl)-2-oxopiperazin-1-yl)acetamido)-N-(4-methoxyphenyl)-N-methyl-3-phenylpropanamide]",0–20%,308,"death after single dose (Kunming mice; 1000 mg/kg): No death was observed; acute toxicity / tolerability (Kunming mice; single dose 1000 mg/kg, one week): no acute toxicity; also recorded: well-tolerated; RT activity as compared to the DMSO control (recombinant HIV-1 RT): 95±15%; V [2]: 5.7524 L/kg"
